Consider 17 compounds from patent US20190127354A1, “2,4,6,7-TETRASUBSTITUTED QUINOLINE COMPOUNDS AS INHIBITORS OF DNA […]” (FUNDACIÓN PARA LA INVESTIGACIÓN MÉDICA APLICADA, priority 2015, published 2019).

Assay [1] concerns the target T1, human G9a enzyme (Homo sapiens, UniProt Q96KQ7).
T1 construct: purchased BPS Biosciences 51001; host or cells: baculovirus infected Sf9 cells
T1 sequence (Q96KQ7 1-1210): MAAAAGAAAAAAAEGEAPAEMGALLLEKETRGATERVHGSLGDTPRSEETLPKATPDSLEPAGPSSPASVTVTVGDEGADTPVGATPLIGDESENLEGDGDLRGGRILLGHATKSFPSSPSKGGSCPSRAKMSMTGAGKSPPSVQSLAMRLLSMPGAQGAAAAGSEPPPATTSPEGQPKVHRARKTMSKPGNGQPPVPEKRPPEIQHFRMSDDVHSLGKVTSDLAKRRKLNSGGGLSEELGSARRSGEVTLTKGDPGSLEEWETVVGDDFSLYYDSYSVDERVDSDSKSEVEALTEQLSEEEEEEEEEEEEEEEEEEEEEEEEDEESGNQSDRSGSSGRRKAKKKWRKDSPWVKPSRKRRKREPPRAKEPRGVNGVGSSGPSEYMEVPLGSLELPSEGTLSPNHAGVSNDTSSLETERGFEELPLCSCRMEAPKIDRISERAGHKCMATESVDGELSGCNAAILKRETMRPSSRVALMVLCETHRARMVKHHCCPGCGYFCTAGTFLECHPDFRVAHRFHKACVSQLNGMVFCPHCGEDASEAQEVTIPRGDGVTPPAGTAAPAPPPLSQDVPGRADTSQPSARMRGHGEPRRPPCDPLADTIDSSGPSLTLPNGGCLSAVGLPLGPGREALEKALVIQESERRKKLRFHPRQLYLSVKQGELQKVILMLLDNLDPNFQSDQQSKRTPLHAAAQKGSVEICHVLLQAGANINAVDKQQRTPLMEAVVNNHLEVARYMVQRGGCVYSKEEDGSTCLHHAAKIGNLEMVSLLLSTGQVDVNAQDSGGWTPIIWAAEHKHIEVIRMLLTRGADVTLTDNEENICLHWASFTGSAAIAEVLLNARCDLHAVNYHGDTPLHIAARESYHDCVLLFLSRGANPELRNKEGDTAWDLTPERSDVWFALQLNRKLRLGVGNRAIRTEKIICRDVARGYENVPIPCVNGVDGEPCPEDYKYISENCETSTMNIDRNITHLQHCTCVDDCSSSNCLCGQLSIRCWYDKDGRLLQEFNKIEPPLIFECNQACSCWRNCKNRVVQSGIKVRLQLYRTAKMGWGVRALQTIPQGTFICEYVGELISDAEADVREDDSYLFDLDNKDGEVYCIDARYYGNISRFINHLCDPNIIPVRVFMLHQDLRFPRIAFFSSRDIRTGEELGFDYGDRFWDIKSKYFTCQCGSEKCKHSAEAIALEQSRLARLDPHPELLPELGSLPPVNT
Kind of assay: G9a enzyme activity assay (TR-FRET). The conditions noted are these: 1 hour at room temperature. Type of assay: biochemical. How it is done:
G9a Enzyme Activity Assay
The biochemical assay to measure G9a enzyme activity relies on time-resolved fluorescence energy transfer (TR-FRET) between europium cryptate (donor) and XL665 (acceptor). […] The human G9a enzyme expressed in a baculovirus infected Sf9 cell expression system was obtained from BPS Biosciences (Cat. #51001). Enzyme activity assay was carried out in a white 384-well plate in a final volume of 20 μl, as follow: • 4 μl of vehicle or studied compound 2.5× concentrated prepared in assay buffer (50 mM Tris-HCl, 10 mM NaCl, 4 mM DTT, 0.01% Tween-20 pH9). Final percentage of DMSO was 0.5%. • 2 μl of 1 nM G9a enzyme diluted in assay buffer. […] Final concentration 150 nM. • Then, add 5 μl of streptavidin XL665 beads. Final concentration of 16 μM. • Read the plate after 1 hour of incubation at room temperature.
For each well, fluorescence was measured at 620 nm and 665 nm. A ratio (665 nm/620 nm) was then calculated in order to minimize medium interferences. Positive control was obtained in the presence of the vehicle of the compounds. Negative control was obtained in the absence of G9a enzyme activity. Calculated IC50 values were determined using GraphPrism using 4-parameters inhibition curve.
A general note: In TR-FRET formats the signal depends on donor and acceptor labels being close together.

The target in assay [2] is T2, human DNMT1 (Homo sapiens, UniProt P26358).
T2 construct: purchased Reaction Biology Corp. DMT-21-124
In words: DNMT1 enzyme activity assay (TR-FRET, EPIgeneous methyltransferase assay). Type of assay: biochemical. The conditions noted are these: human DNMT1, 15 minutes at 37° C. The protocol:
DNMT1 Enzyme Activity Assay
The biochemical assay to measure DNMT1 enzyme activity relies on time-resolved fluorescence energy transfer (TR-FRET) between lumi4-Tb (donor) and d2 (acceptor) using the EPIgeneous methyltransferase assay (CisBio Cat#62SAHPEB). […] TR-FRET signal is inversely proportional to the concentration of SAH, product of DNMT1 enzyme activity, in the sample. The human DNMT1 was obtained from Reaction Biology Corp. (Cat# DMT-21-124).
Enzyme activity assay was carried out in a white 384-well plate in a final volume of 20 μl, as follow: • 4 μl of vehicle or studied compound 2.5× concentrated prepared in assay buffer (50 mM Tris-HCl, 1 mM EDTA, 1 mM DTT, 0.1% Triton X-100, 5% glycerol pH 7.5). Final percentage of DMSO was 0.5%. • 2 μl of 1 nM DNMT1 enzyme diluted in assay buffer.
For each well, fluorescence was measured at 620 nm and 665 nm. A ratio (665 nm/620 nm) was then calculated in order to minimize medium interferences. Positive control was obtained in the presence of the vehicle of the compounds. Calculated IC50 values were determined using GraphPrism using 4-parameters inhibition curve.

Where only a bound is given, the exact number is not on record here.

T2 sequence (P26358 whole entry): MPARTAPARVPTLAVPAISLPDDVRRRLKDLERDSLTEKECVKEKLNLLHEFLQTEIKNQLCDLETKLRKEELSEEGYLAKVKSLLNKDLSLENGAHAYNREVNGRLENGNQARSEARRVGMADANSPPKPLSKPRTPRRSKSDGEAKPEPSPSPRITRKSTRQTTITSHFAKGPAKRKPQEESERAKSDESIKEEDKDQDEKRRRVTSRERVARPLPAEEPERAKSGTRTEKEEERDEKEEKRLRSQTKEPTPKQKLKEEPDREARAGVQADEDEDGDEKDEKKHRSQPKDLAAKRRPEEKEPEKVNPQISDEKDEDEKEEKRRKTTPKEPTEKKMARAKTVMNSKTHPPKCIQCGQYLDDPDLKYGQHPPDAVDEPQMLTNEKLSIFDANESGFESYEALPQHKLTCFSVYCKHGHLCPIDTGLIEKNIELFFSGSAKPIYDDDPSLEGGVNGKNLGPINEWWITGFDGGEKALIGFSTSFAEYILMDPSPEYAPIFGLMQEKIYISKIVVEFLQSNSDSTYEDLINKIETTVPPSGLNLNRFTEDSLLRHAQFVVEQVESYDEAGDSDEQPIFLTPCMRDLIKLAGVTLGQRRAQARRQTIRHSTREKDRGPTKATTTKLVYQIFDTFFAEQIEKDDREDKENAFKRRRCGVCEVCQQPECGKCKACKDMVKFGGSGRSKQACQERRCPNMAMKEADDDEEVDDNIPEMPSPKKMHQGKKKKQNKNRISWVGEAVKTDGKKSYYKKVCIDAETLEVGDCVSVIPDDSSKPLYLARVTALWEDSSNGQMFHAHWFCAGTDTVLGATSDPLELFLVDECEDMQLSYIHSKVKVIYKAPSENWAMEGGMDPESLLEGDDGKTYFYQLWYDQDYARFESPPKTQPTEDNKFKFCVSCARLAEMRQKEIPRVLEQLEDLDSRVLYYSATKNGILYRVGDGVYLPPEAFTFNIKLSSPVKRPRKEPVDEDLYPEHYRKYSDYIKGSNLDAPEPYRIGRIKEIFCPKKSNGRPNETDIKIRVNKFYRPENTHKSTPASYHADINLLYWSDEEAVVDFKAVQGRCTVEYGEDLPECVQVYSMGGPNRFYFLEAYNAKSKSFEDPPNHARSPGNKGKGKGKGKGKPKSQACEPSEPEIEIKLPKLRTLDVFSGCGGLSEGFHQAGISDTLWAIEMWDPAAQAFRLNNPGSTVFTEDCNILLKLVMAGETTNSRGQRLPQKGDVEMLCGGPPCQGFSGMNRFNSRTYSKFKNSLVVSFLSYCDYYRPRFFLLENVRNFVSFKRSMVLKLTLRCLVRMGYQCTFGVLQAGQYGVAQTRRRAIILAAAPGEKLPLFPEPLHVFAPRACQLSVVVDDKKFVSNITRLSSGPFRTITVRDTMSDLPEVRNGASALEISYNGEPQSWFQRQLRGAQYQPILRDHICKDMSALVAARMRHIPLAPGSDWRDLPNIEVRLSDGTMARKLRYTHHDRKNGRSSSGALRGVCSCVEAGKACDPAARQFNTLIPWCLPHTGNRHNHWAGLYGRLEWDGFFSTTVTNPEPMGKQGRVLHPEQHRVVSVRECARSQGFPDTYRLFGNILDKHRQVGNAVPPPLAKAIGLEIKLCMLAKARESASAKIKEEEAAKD

As usually defined, the IC50 is the point on the concentration scale where inhibition reaches its midpoint. Low values mean inhibition by little substance, high ones a need for much substance. Regarding `COc1cc2c(OCC3CCN(C)CC3)cc(-c3ccc(C)[nH]3)nc2cc1OCCCN1CCCC1` [Compound 3-03], the IC50 in assay [1] lay in the range of 100 to 500 nM; in assay [2] it was 500 to 1000 nM.

`COc1cc2c(N3CCC(C(C)(C)N)CC3)cc(-c3ccc(C)o3)nc2cc1OCCCN1CCCC1` [Compound 2-07]: the IC50 in assay [1] was in the range of 500 to 1000 nM; in assay [2], 1000 to 10000 nM.

`COc1cc2c(N(C)C3CCN(C)CC3)cc(-c3cc(C)oc3C)nc2cc1OCCCN1CCCC1` [Compound 1-05]: the IC50 in assay [1] and in assay [2] was 1000 to 10000 nM each time.

As for `COc1cc2c(N(C)CC3CCN(C)CC3)cc(-c3ccccc3)nc2cc1OCCCN1CCCC1` [Compound 1-22], the results for the IC50 in assay [1] and in assay [2] were 1000 to 10000 nM and 500 to 1000 nM, respectively.

For `COc1cc2c(N(C)CC3CCN(C)CC3)cc(-c3cc(C)oc3C)nc2cc1OCCCN1CCCC1` [Compound 1-19], the IC50 in assay [1] and in assay [2] was 500 to 1000 nM each time.

`COc1cc2c(N(C)C)cc(-c3ccc(C)[nH]3)nc2cc1OCCCN1CCCC1` [Compound 1-11]: the IC50 in assay [1] is 100 to 500 nM; in assay [2] it was 1000 to 10000 nM.

Regarding `COc1cc2c(OC3CCN(C)CC3)cc(-c3ccc(C)o3)nc2cc1OC1CC2(C1)CN(C)C2` [Compound 3-06, 6-methoxy-7-[(2-methyl-2-azaspiro[3.3]heptan-6-yl)oxy]-2-(5-methyl-2-furyl)-4-[(1-methyl-4-piperidyl)oxy]quinoline], the results for the IC50 in assay [1] and in assay [2] were > 10000 nM and 1000 to 10000 nM, respectively.

With `COc1cc2c(C=C3CCN(C)CC3)cc(-c3ccc(C)o3)nc2cc1OCCCN1CCCC1` [Compound 5-01, 6-methoxy-2-(5-methyl-2-furyl)-4-[(1-methyl-4-piperidylidene)methyl]-7-(3-pyrrolidin-1-ylpropoxy)quinoline], the IC50 is > 10000 nM in assay [1] and 1000 to 10000 nM in assay [2].

For `COc1cc2c(N(C)C3CC4(CCN(C(C)C)CC4)C3)cc(-c3ccc(C)o3)nc2cc1OCCCN1CCCC1` [Compound 1-09], the IC50 in assay [1] and in assay [2] was 500 to 1000 nM each time.

Take `COc1cc2c(N(C)CC3CCN(C)CC3)cc(-c3ccc(C)o3)nc2cc1OCCCN1CCC(F)C1` (stereo not shown) [Compound 1-20]: the results for the IC50 in assay [1] and in assay [2] were > 10000 nM and 1000 to 10000 nM, respectively.

Regarding `CNCC1CCN(c2cc(-c3ccccc3)nc3cc(OCCCN4CCCC4)c(OC)cc23)CC1` [Compound 2-09], the values for the IC50 in assay [1] and in assay [2] were 100 to 500 nM and 1000 to 10000 nM, respectively.

In the case of `CNC1CCN(c2cc(-c3ccc(C)[nH]3)nc3cc(OCCCN4CCCC4)c(OC)cc23)CC1` [Compound 2-03], the IC50 in assay [1] was in the range of 100 to 500 nM; in assay [2], 500 to 1000 nM.

Consider `COc1cc2c(N3CCC(CO)CC3)cc(-c3ccc(C)o3)nc2cc1OCCCN1CCCC1` [Compound 2-02], for which the IC50 in assay [1] and in assay [2] was 1000 to 10000 nM throughout.

Take `CNCC1CCN(c2cc(C3CCCCC3)nc3cc(OCCCN4CCCC4)c(OC)cc23)CC1` [Compound 2-08, 1-[1-[2-cyclohexyl-6-methoxy-7-(3-pyrrolidin-1-ylpropoxy)-4-quinolyl]-4-piperidyl]-N-methyl-methanamine]: the IC50 is < 100 nM in assay [1] and 1000 to 10000 nM in assay [2].

In the case of `COc1cc2c(N(C)C3CCN(C)CC3)cc(-c3ccc(C)[nH]3)nc2cc1OCCCN1CCCC1` [Compound 1-07], the IC50 was < 100 nM in assay [1] and 500 to 1000 nM in assay [2].

Consider `COc1cc2c(N3CCC(N(C)C)CC3)cc(-c3ccc(C)[nH]3)nc2cc1OCCCN1CCCC1` [Compound 2-05, 1-[6-methoxy-2-(5-methyl-1H-pyrrol-2-yl)-7-(3-pyrrolidin-1-ylpropoxy)-4-quinolyl]-N,N-dimethyl-piperidin-4-amine], for which the IC50 in assay [1] and in assay [2] was 100 to 500 nM in each case.

Take `COc1cc2c(N(C)CC3CCN(C)CC3)cc(C3CCCCC3)nc2cc1OCCCN1CCCC1` [Compound 1-21, 2-cyclohexyl-6-methoxy-N-methyl-N-[(1-methyl-4-piperidyl)methyl]-7-(3-pyrrolidin-1-ylpropoxy)quinolin-4-amine]: the values for the IC50 in assay [1] and in assay [2] were 100 to 500 nM and 1000 to 10000 nM, respectively.
